In article PMC11858513, “Antibiofilm Activities of Tritrpticin Analogs Against Pathogenic Pseudomonas aeruginosa PA01 Strains” (Molecules, 2025):
Converted amounts (≈) assume the structure as drawn. Where two headings read alike, the source gives them in different places. Non-standard residues stand in square brackets, D forms with d. Residues, ends and D or L forms follow the SMILES beside them. Dap = NC[C@H](N)C(=O)O

Assays:
P. aeruginosa PAO1 GFP [1] = test: MIC against planktonic cells, absorbance at 600 nm; format: cell-based, Pseudomonas aeruginosa; conditions: absorbance 600 nm
Method in brief: (§1)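 GFP-expressing P. aeruginosa PAO1 exposed to peptides; planktonic MIC read by absorbance at 600 nm, while MBIC (prevention) and MBEC (eradication) used biofilm GFP fluorescence at 480/530 nm. Triplicate biological replicates averaged, with untreated growth and medium-only controls on each plate.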

P. aeruginosa PAO1 GFP [2] = test: MBIC, prevention of biofilm formation, GFP fluorescence method; format: cell-based, Pseudomonas aeruginosa
Method in brief: as §1

P. aeruginosa PAO1 GFP [3] = test: MBEC, biofilm eradication, GFP fluorescence method; format: cell-based, Pseudomonas aeruginosa
Method in brief: as §1

S. aureus GFP [4] = test: MIC against planktonic cells, absorbance at 600 nm; format: cell-based, Staphylococcus aureus; conditions: Table 4; Sa GFP, 10% TSB and 0.1% glucose; absorbance 600 nm; mean of three biological replicates
Method in brief: (§2)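 GFP-expressing S. aureus, triplicate biological replicates. MIC on planktonic cells by absorbance at 600 nm. MBIC and MBEC from biofilm GFP fluorescence (480/530 nm), with untreated growth and media-only controls.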

S. aureus GFP [5] = test: MBIC, GFP fluorescence method; format: cell-based, Staphylococcus aureus; conditions: Table 4, Sa GFP, 10% TSB and 0.1% glucose, mean of three biological replicates
Method in brief: as §2

S. aureus GFP [6] = test: MBEC, GFP fluorescence method; format: cell-based, Staphylococcus aureus; conditions: Table 4, Sa GFP, 10% TSB and 0.1% glucose, mean of three biological replicates
Method in brief: as §2

S. aureus GFP [7] = format: cell-based, Staphylococcus aureus; conditions: Table 4; Sa GFP; lowest concentration of peptide with no bacterial growth seen on the spot agar plate
P. aeruginosa PAO1 [8] = format: cell-based, Pseudomonas aeruginosa; conditions: absorbance 600 nm
Method in brief: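 PAO1 tested with peptides in 1× BM2; planktonic growth read at 600 nm, biofilm quantified by 0.1% crystal violet staining (15 min), ethanol release and 595 nm reading, using a Calgary biofilm device. Values are means of three replicates with untreated-growth and medium-only controls.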

P. aeruginosa PAO1 [9] = format: cell-based
Method in brief: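 Peptides tested against P. aeruginosa PAO1 in 1× BM2 medium; planktonic growth read at 600 nm for MIC. Biofilm inhibition and eradication quantified by 0.1% crystal violet staining (15 min), ethanol release, absorbance at 595 nm, plus GFP-fluorescence and Calgary peg-device methods; triplicate means.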

P. aeruginosa PAO1 [10] = format: cell-based, Pseudomonas aeruginosa; conditions: Table 5; PAO1, 1x BM2; biofilms on pegs, cells plated and counted; three biological replicates
Method in brief: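 Biofilm eradication (MBEC) for peptides against P. aeruginosa PAO1 in 1× BM2 medium, from counts of biofilm cells; GFP-producing strain fluorescence, crystal violet staining and Calgary peg device also used. Three biological replicates, mean ± SD, with untreated growth and medium-only controls.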

[11] = system: peripheral blood mononuclear cells (PBMCs); conditions: cited from earlier work
Description: (§3) Overall, our work highlights the potential of […] analogs in comparison to related Trp-rich AMPs as potent antibiofilm peptides that can interfere in biofilms produced by P. aeruginosa and potentially other Gram-negative pathogenic bacteria. New antibiofilm agents are welcome for this organism, as P. aeruginosa is well-known to have numerous mechanisms to elude the action of antibiotics during biofilm formation. Various factors can influence the suitability of AMPs to act as bactericidal and antibiofilm peptides simultaneously (for a general discussion see, for example, [74]). One ...

red blood cells = conditions: cited from earlier work
Description: as §3

[12] = cited from earlier work
Description: as §3

[13] = Table 2, BM2 medium, mean of three biological replicates
[14] = Table 5, regular PAO1 (no GFP), 1x BM2, mean of three biological replicates
[15] = Table 5, PAO1, 1x BM2, crystal violet at 595 nm, mean of three biological replicates
[16] = Table 5, minimum biofilm reduction concentration, PAO1, 1x BM2, crystal violet at 595 nm, mean of three biological replicates
[17] = Table 3, Tritrp-Lys derivatives, BM2 medium, three replicates
[18] = Table 6, Tritrp-Lys derivatives, PAO1, BM2, three replicates, unit not given
[19] = Table 6, Tritrp-Lys derivatives, PAO1, BM2, 0.1% crystal violet 15 min, released with 95% ethanol, 595 nm, three replicates, unit not given

Row | Structure (SMILES) | MIC at 600 nm LD50 (P. aeruginosa PAO1 GFP [1]; [13]) [µM] | MIC at 600 nm LD90 (P. aeruginosa PAO1 GFP [1]; [13]) [µM] | MBIC at 488 and 530 nm LD50 (P. aeruginosa PAO1 GFP [2]; [13]) [µmol/L] | MBIC at 488 and 530 nm LD90 (P. aeruginosa PAO1 GFP [2]; [13]) [µmol/L] | MBEC at 488 and 530 nm LD50 (P. aeruginosa PAO1 GFP [3]; [13]) [µmol/L] | MBEC at 488 and 530 nm LD90 (P. aeruginosa PAO1 GFP [3]; [13]) [µmol/L] | MIC at 600 nm LD50 (S. aureus GFP [4]) [µM] | MIC at 600 nm LD90 (S. aureus GFP [4]) [µM] | MBIC at 488 and 530 nm LD50 (S. aureus GFP [5]) [µmol/L] | MBIC at 488 and 530 nm LD90 (S. aureus GFP [5]) [µmol/L] | MBEC at 488 and 530 nm LD50 (S. aureus GFP [6]) [µmol/L] | MBEC at 488 and 530 nm LD90 (S. aureus GFP [6]) [µmol/L] | MBC Agar Plate (S. aureus GFP [7]) [µM] | MIC at 600 nm LD50 (P. aeruginosa PAO1 [8]; [14]) [µmol/L] | MIC at 600 nm LD90 (P. aeruginosa PAO1 [8]; [14]) [µmol/L] | MBRC (CV at 595 nm) LD50 (P. aeruginosa PAO1 [9]; PAO1) [µmol/L] | MBIC (CV at 595 nm) LD90 (P. aeruginosa PAO1 [9]; [15]) [µmol/L] | MBRC (CV at 595 nm) LD90 (P. aeruginosa PAO1 [9]; [16]) [µmol/L] | MBEC from Calgary Biofilm Device (CBD) LD50 (P. aeruginosa PAO1 [10]) [µmol/L] | MBEC from Calgary Biofilm Device (CBD) LD90 (P. aeruginosa PAO1 [10]) [µmol/L] | further results
1 | CC(C)C[C@H](NC(=O)[C@H](Cc1ccccc1)NC(=O)[C@H](C)NC(=O)[C@H](Cc1c[nH]c2ccccc12)NC(=O)[C@H](Cc1c[nH]c2ccccc12)NC(=O)[C@H](Cc1c[nH]c2ccccc12)NC(=O)[C@@H]1CCCN1C(=O)[C@H](Cc1ccccc1)NC(=O)[C@H](CCCNC(=N)N)NC(=O)[C@H](CCCNC(=N)N)NC(=O)[C@@H](N)C(C)C)C(=O)N[C@@H](CCCNC(=N)N)C(=O)N[C@@H](CCCNC(=N)N)C(N)=O [Tritrp-P9A] (H-VRRFPWWWAFLRR-NH2) | 2 (≈ 3.75 µg/mL) | 2 (≈ 3.75 µg/mL) | 0.25 | 2 | 4 | 8 | 0.25 (≈ 0.469 µg/mL) | 1 (≈ 1.88 µg/mL) | 0.25 | 2 | 0.5 | 2 | 2 (≈ 3.75 µg/mL) | 2 (≈ 3.75 µg/mL) | 2 (≈ 3.75 µg/mL) | 16 | 2 | 32 | 8 | 16 | MBIC (CV at 595 nm) LD50 (P. aeruginosa PAO1 [9]; PAO1): 1 µmol/L; cytotoxicity activities against PBMCs [11]: quite strong; hemolytic activity (red blood cells): slightly more modest
2 | CC(C)C[C@H](NC(=O)[C@H](Cc1ccccc1)NC(=O)[C@H](C)NC(=O)[C@H](Cc1c[nH]c2ccccc12)NC(=O)[C@H](Cc1c[nH]c2ccccc12)NC(=O)[C@H](Cc1c[nH]c2ccccc12)NC(=O)[C@H](C)NC(=O)[C@H](Cc1ccccc1)NC(=O)[C@H](CCCNC(=N)N)NC(=O)[C@H](CCCNC(=N)N)NC(=O)[C@@H](N)C(C)C)C(=O)N[C@@H](CCCNC(=N)N)C(=O)N[C@@H](CCCNC(=N)N)C(N)=O [Tritrp-P59A] (H-VRRFAWWWAFLRR-NH2) | 2 (≈ 3.7 µg/mL) | 4 (≈ 7.4 µg/mL) | 2 | 4 | 8 | 16 | 1 (≈ 1.85 µg/mL) | 2 (≈ 3.7 µg/mL) | 2 | 2 | 1 | 2 | 4 (≈ 7.4 µg/mL) | 2 (≈ 3.7 µg/mL) | 4 (≈ 7.4 µg/mL) | 32 | 4 | 32 | 16 | 32 | MBIC (CV at 595 nm) LD50 (P. aeruginosa PAO1 [9]; PAO1): 4 µmol/L; cytotoxicity activities against PBMCs [11]: quite strong; hemolytic activity (red blood cells): relatively strong
3 | NCC(N)C(=O)O (centres unmarked) [Dap, 2,3-diaminopropionic acid] |  |  |  |  |  |  |  |  |  |  |  |  |  |  |  |  |  |  |  |  | sidechain pKa value [12]: 6.3
4 | CC(C)C[C@H](NC(=O)[C@H](Cc1ccccc1)NC(=O)[C@@H]1CCCN1C(=O)[C@H](Cc1c[nH]c2ccccc12)NC(=O)[C@H](Cc1c[nH]c2ccccc12)NC(=O)[C@H](Cc1c[nH]c2ccccc12)NC(=O)[C@@H]1CCCN1C(=O)[C@H](Cc1ccccc1)NC(=O)[C@H](CN)NC(=O)[C@H](CN)NC(=O)[C@@H](N)C(C)C)C(=O)N[C@@H](CN)C(=O)N[C@@H](CN)C(N)=O [Tritrp-Dap] (H-V[Dap][Dap]FPWWWPFL[Dap][Dap]-NH2; N-terminus assumed) |  |  |  |  |  |  |  |  |  |  |  |  |  |  |  |  |  |  |  |  | MIC at 600 nm LD50 (P. aeruginosa PAO1 GFP [1]; [17]): 8 µM (≈ 13 µg/mL); MIC at 600 nm LD90 (P. aeruginosa PAO1 GFP [1]; [17]): 8 µM (≈ 13 µg/mL); MBIC at 488 and 530 nm LD50 (P. aeruginosa PAO1 GFP [2]; [17]): 8 µmol/L; MBIC at 488 and 530 nm LD90 (P. aeruginosa PAO1 GFP [2]; [17]): 16 µmol/L; MBEC at 488 and 530 nm LD50 (P. aeruginosa PAO1 GFP [3]; [17]): 8 µmol/L; MBEC at 488 and 530 nm LD90 (P. aeruginosa PAO1 GFP [3]; [17]): 64 µmol/L; MIC at 600 nm LD50 (P. aeruginosa PAO1 [8]; [18]): 8; MIC at 600 nm LD90 (P. aeruginosa PAO1 [8]; [18]): 16; MBEC (CV at 595 nm) LD90 (P. aeruginosa PAO1 [9]; [19]): 64; MBIC (CV at 595 nm) LD90 (P. aeruginosa PAO1 [9]; [19]): 16; cytotoxicity activities against PBMCs [11]: no effect; effect on RBCs (red blood cells): no effect
5 | CC(C)[C@H](NC(=O)[C@@H]1CCCN1C(=O)[C@@H](N)Cc1ccccc1)C(=O)N[C@H](C(=O)N[C@@H](Cc1c[nH]c2ccccc12)C(=O)N[C@@H](CCCCN)C(=O)N[C@@H](Cc1c[nH]c2ccccc12)C(=O)N[C@@H](Cc1c[nH]c2ccccc12)C(=O)N[C@@H](CCCCN)C(=O)N[C@@H](Cc1c[nH]c2ccccc12)C(=O)N[C@@H](Cc1c[nH]c2ccccc12)C(=O)N[C@@H](CCCCN)C(=O)NCC(N)=O)[C@@H](C)O [PuroA-Lys, reference compound] (H-FPVTWKWWKWWKG-NH2) | 4 (≈ 7.34 µg/mL) | 8 (≈ 14.7 µg/mL) | 4 | 8 | 64 | 64 | 2 (≈ 3.67 µg/mL) | 4 (≈ 7.34 µg/mL) | 2 | 4 | 8 | 8 | 8 (≈ 14.7 µg/mL) | 8 (≈ 14.7 µg/mL) | 16 (≈ 29.3 µg/mL) |  | 16 | 32 | 32 | 64 | MBIC (CV at 595 nm) LD50 (P. aeruginosa PAO1 [9]; [15]): 8 µmol/L; MBRC (CV at 595 nm) LD50 (P. aeruginosa PAO1 [9]; [16]): 32 µmol/L
6 | CC(C)C[C@H](NC(=O)[C@H](Cc1ccccc1)NC(=O)[C@H](C)NC(=O)[C@H](Cc1c[nH]c2ccccc12)NC(=O)[C@H](Cc1c[nH]c2ccccc12)NC(=O)[C@H](Cc1c[nH]c2ccccc12)NC(=O)[C@@H]1CCCN1C(=O)[C@H](Cc1ccccc1)NC(=O)[C@H](CCCCN)NC(=O)[C@H](CCCCN)NC(=O)[C@@H](N)C(C)C)C(=O)N[C@@H](CCCCN)C(=O)N[C@@H](CCCCN)C(N)=O [Tritrp-P9A-Lys] (H-VKKFPWWWAFLKK-NH2) | 4 (≈ 7.05 µg/mL) | 8 (≈ 14.1 µg/mL) | 8 | 8 | 4 | 64 | 1 (≈ 1.76 µg/mL) | 4 (≈ 7.05 µg/mL) | 2 | 4 | 1 | 8 | 8 (≈ 14.1 µg/mL) | 4 (≈ 7.05 µg/mL) | 8 (≈ 14.1 µg/mL) | 32 | 16 | 64 | 64 | 64 | MBIC (CV at 595 nm) LD50 (P. aeruginosa PAO1 [9]; [15]): 8 µmol/L
